Paper PMC9000336, “Development of Bicyclo[3.1.0]hexane-Based A3 Receptor Ligands: Closing the Gaps in the Structure–Affinity Relationships” (Molecules, 2022)

Legend:
[1] = target: T1, human adenosine A2A receptor (Homo sapiens, UniProt P29274); assay: Radioligand displacement assay, human adenosine A2A receptor ([3H]ZM241385, HEK293hA2AR membranes); assay type: binding; settings: n = 3; for A2A displacement at 10 µM: test compound 10 µM
T1 construct: expressed in transfected cells; host or cells: HEK293 cells (HEK293hA2AR), from Dr. J. Wang (Biogen/IDEC); membrane preparation
T1 sequence (P29274 whole entry): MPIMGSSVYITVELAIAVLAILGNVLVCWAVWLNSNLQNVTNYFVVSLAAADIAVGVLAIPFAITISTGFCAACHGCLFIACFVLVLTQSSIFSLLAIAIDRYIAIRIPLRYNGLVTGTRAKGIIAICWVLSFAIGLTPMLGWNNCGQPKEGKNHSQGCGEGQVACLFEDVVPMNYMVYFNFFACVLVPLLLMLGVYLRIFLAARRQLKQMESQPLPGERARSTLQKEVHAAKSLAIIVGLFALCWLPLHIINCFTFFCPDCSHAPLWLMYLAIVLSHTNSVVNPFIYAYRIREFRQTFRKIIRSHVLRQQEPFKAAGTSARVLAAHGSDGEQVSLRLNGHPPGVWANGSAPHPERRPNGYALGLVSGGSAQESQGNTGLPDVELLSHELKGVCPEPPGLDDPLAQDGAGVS
Procedure: (§1) Human embryonic kidney 293 cells stably expressing the human adenosine A2A receptor (HEK293hA2AR) were kindly provided by Dr. J. Wang (Biogen/IDEC, Cambridge, MA, USA), CHO-spap cells stably expressing the wild-type (WT) hA2B receptor (CHO-spap-hA2BR) were kindly provided by S. J. Dowell (GlaxoSmithKline, Brentfort, UK).
(§2) All cells were grown to 80–90% confluency and detached from plates by scraping them into 5 mL phosphate-buffered saline. Detached cells were collected and centrifuged at 200 g for 5 min. Pellets derived from 100 15 cm Ø plates were pooled and resuspended in 70 mL of ice-cold 50 mM tris(hydroxymethyl)aminomethane (Tris)-HCl buffer, pH 7.4. A Heidolph Diax 900 homogenizer was used to homogenize the cell suspension. Membranes and the cytosolic fraction were separated by centrifugation at 100,000 g in a Beckman Optima LE-80 K ultracentrifuge (Beckman Coulter, Fullerton, CA, USA) at 4 °C for 20 min. The pellet was resuspended in 35 mL of the Tris-HCl buffer, and the homogenization and centrifugation steps were repeated. Tris-HCl buffer (25 mL) was used to resuspend the pellet, and adenosine deaminase (ADA) was added (0.8 U/mL) to break down endogenous adenosine. Membranes were stored in 250 µL and 500 µL aliquots at −80 °C. Total protein concentrations were measured using the bicinchoninic acid (BCA) method.
(§3) Nonspecific binding was determined in the presence of 100 µM adenosine-5-N-ethyluronamide (NECA). Incubations were terminated by rapid vacuum filtration to separate the bound and free radioligand through prewetted 96-well GF/B filter plates using a PerkinElmer Filtermate-harvester (Perkin Elmer, Groningen, The Netherlands). Filters were subsequently washed 12 times with ice-cold 50 mM Tris-HCl, pH 7.4.
(§4) The plates of all four adenosine receptor assays were dried at 55 °C after which MicroscintTM-20-cocktail was added (Perkin Elmer, Groningen, The Netherlands).
(§5) All experimental data were analyzed using the non-linear regression curve fitting program GraphPad Prism 7.0 (GraphPad Software Inc., San Diego, CA, USA). IC50 values obtained from competition displacement binding data were converted into Ki values using the Cheng–Prusoff equation.

hA2B receptor = target: T2, hA2B receptor (Homo sapiens, UniProt P29275); assay: Radioligand displacement assay, human adenosine A2B receptor ([3H]PSB-603, CHO-spap-hA2BR membranes); assay type: binding; settings: n = 3; [3H]PSB-603; read-out: A2B Ki ± SEM
T2 construct: expressed in transfected cells; host or cells: CHO-spap cells (CHO-spap-hA2BR), from S. J. Dowell (GlaxoSmithKline); membrane preparation
T2 sequence (P29275 1-332): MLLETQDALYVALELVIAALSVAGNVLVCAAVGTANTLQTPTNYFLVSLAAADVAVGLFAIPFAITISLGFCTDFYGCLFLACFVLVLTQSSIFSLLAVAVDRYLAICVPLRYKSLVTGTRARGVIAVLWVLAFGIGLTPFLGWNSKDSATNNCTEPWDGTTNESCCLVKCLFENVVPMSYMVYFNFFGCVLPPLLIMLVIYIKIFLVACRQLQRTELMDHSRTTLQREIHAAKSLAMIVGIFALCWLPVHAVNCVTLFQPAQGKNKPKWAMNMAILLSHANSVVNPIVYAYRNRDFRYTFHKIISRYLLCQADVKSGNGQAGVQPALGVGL
Procedure: as §1
Chinese hamster ovary cells stably expressing the […] and a reporter gene, the secreted placental alkaline phosphatase, (CHO-spap-hA2BR) were grown in DMEM and Ham’s F12 medium (1:1) supplemented with 10% (v/v) newborn calf serum, 100 µg/mL streptomycin, 100 IU/mL penicillin, 1 mg/mL G418, and 0.4 mg/mL hygromycin at 37 °C and 5% CO2.
as §2
(§6) A2B Receptor: Membrane aliquots containing 30 µg (CHO-spap-hA2BR) total protein were incubated in a total volume of 100 µL assay buffer (0.1% CHAPS in 50 mM TrisHCl, pH 7.4) at 25 °C for 2 h. […] Nonspecific binding was determined in the presence of 10 µM ZM241385. Incubations were terminated by rapid vacuum filtration to separate the bound and free radioligand through prewetted 96-well GF/B filter plates using a PerkinElmer Filtermate-harvester (Perkin Elmer, Groningen, the Netherlands). Filters were subsequently washed 12 times with ice-cold 0.1% BSA in 50 mM Tris-HCl, pH 7.4.
as §4, §5

P1 receptor = P1 receptor binding studies (A1, A2A, A2B and A3), overall statement; parameters: species or system human; settings: all four subtypes
Procedure: A1 Receptor: Membrane aliquots containing 5 µg (CHOhA1R) protein were incubated in a total volume of 100 µL assay buffer (50 mM Tris-HCl, pH 7.4) at 25 °C for 1 h. […] Nonspecific binding was determined in the presence of 100 µM N^6-cyclopentyladenosine (CPA). Incubations were terminated by rapid vacuum filtration to separate the bound and free radioligand through prewetted 96-well GF/B filter plates using a PerkinElmer Filtermate-harvester (Perkin Elmer, Groningen, the Netherlands). Filters were subsequently washed 12 times with ice-cold 50 mM Tris-HCl, pH 7.4.
as §3, §6
A3 Receptor: Membrane aliquots containing 15 µg (CHOhA3R) total protein were incubated in a total volume of 100 µL assay buffer (50 mM Tris-HCl, pH 8.0, supplemented with 10 mM MgCl2, 1 mM EDTA and 0.01% (w/v) CHAPS) at 25 °C for 2 h. […] Nonspecific binding was determined in the presence of 100 µM NECA. […]
All experimental data were analyzed using the non-linear regression curve fitting program GraphPad Prism 7.0 (GraphPad Software Inc., San Diego, CA, USA). […]

| A2A displacement at 10 µM [1] [%] | Ki (hA2B receptor) [µM] | P1 receptor affinity (P1 receptor) | Ki ([1]; [3H]ZM241385, read-out: A2A Ki ± SEM) [µM] | SMILES |
| --- | --- | --- | --- | --- |
| 3 | > 10 | loss of P1 receptor affinity |  | CSc1cc(N)c2ncn([C@H]3[C@H](O)[C@H](O)[C@]4(CO)C[C@H]34)c2n1 [Compound 17, (1R,2R,3S,4R,5S)-4-(7-Amino-5-methylthio-3H-imidazo[4,5-b]pyridin-3-yl)-1-(hydroxymethyl)bicyclo[3.1.0]hexane-2,3-diol] |
|  | > 10 | no P1 receptor affinity | > 10 | OC[C@@]12C[C@@H]1[C@@H](n1cnc3c(Cl)cc(Cl)nc31)[C@H](O)[C@@H]2O [Compound 12, (1R,2R,3S,4R,5S)-4-(5,7-Dichloro-3H-imidazo[4,5-b]pyridin-3-yl)-1-(hydroxymethyl)bicyclo[3.1.0]hexane-2,3-diol] |
| 4 | > 10 | no P1 receptor affinity |  | Nc1cc(Cl)c2ncn([C@H]3[C@H](O)[C@H](O)[C@]4(CO)C[C@H]34)c2n1 [Compound 11, (1R,2R,3S,4R,5S)-4-(5-Amino-7-chloro-3H-imidazo[4,5-b]pyridin-3-yl)-1-(hydroxymethyl)bicyclo[3.1.0]hexane-2,3-diol] |
